Measured values from patent publication US20230182351A1, “ANTI-MICROBIAL ADDITIVE AND PROPERTIES TO FOAM TO PREVENT MOLD” (LEAR CORPORATION, priority 2021, published 2023).

System: bacterial and fungal growth
Test: Antimicrobial tests summarized in Table 1 (JIS Z 2801, ASTM G-21)
Format: cell-based
Conditions: in polyurethane foam, amount systematically varied
Procedure: Two polyurethane sample families were prepared. The amount of the liquid antimicrobial agent N-butyl-1,2-benzisothiazolin-3-one was systematically varied. It is pointed out that he JIS Z 2801 method test is an industry standard for testing the ability of a surface to inhibit the growth of microorganisms. ASTM G-21 is a test for fungal resistance test

Compound: CCCCn1sc2ccccc2c1=O [N-butyl-1,2-benzisothiazolin-3-one]
- inhibition of bacterial and fungal growth: significant inhibition
